Consider one compound from ChEMBL document CHEMBL5380808, “Design, Synthesis, and Biological Activity of Marinacarboline Analogues as STAT3 Pathway Inhibitors for Docetaxel-Resistant Triple-Negative Breast Cancer” (J Med Chem, 2023).

Calls of active or inactive are those of the source. No cut-off for these calls is given here.

Data set [1] is described as follows: Cytotoxicity against human MRC5 cells assessed as reduction in cell viability incubated for 72 hrs by sulforhodamine B assay. It is filed as toxicity, cell-based. For orientation: The SRB assay estimates cell density from bound dye.
Data set [2] deals with MDA-MB-231. The data set can be described thus: Antitumor activity against docetaxel-resistant human MDA-MB-231-DTR cells xenografted in BALB/c mouse assessed as tumor growth inhibition at 10 mg/kg, ip daily for 12 days. It is filed as functional, organism-based. As to conditions: time 12.0 day. On the technique in general: A xenograft is tissue or cells of one species grown in another, often human tumour cells in immunodeficient mice.

Data set [3] is described as follows: Synergistic antiproliferative activity against docetaxel-resistant human MDA-MB-231-DTR cells assessed as combination index at 4 uM incubated for 72 hrs in presence of 1 uM of docetaxel by Chou-Talalay method. The format is functional.
A short description of data set [4]: Selectivity index, ratio of IC50 for cytotoxicity against human MRC5 cells to IC50 for antiproliferative activity against human MDA-MB-231 cells. It is filed as toxicity, cell-based. As to conditions: MRC5 cells and MDA-MB-231 cells, read-out: Ratio IC50.
For data set [5], the target named is Signal transducer and activator of transcription 3 (Homo sapiens) (UniProt P40763). The data set can be described thus: Inhibition of STAT3 phosphorylation at Y705 residue in docetaxel-resistant human MDA-MB-231-DTR cells assessed as decrease in phosphorylated STAT3 level at 2.5 to 10 uM incubated for 24 hrs by Western blot analysis. The format is cell-based. The note with it: dose 2.5-10 µM. (A western blot detects proteins with antibodies after separation by electrophoresis.)

Data set [6] in a line: Induction of cell cycle arrest in docetaxel-resistant human MDA-MB-231-DTR cells assessed as accumulation at G2/M phase at 5 uM incubated for 24 hrs by PI staining based flow cytometry analysis (reference value: 13.54%). It is filed as functional.
Data set [7] in a line: Induction of cell cycle arrest in docetaxel-resistant human MDA-MB-231-DTR cells assessed as accumulation at subG1 phase at 5 uM incubated for 24 hrs by PI staining based flow cytometry analysis (reference value: 0.41%). The format is functional.
The nature of data set [8]: Synergistic antiproliferative activity against docetaxel-resistant human MDA-MB-231-DTR cells assessed as combination index at 4 uM incubated for 72 hrs in presence of 2 uM of docetaxel by Chou-Talalay method. The format is functional.
Data set [9] can be described thus: Antiproliferative activity against docetaxel-resistant human MDA-MB-231-DTR cells assessed as reduction in cell viability incubated for 72 hrs by sulforhodamine B assay. The format is functional, cell-based. The note with it: MDA-MB-231, 72 h.
The test system of data set [10] is MDA-MB-231. The data set can be described thus: Inhibition of cell migration in docetaxel-resistant human MDA-MB-231-DTR cells assessed as downregulation of Snail expression level at 3 to 6 uM incubated for 24 hrs by Western blot analysis. The note with it: dose 3-6 µM. The format is functional, cell-based.
The subject of data set [11] is MDA-MB-231. Description: Induction of cell cycle arrest at G2/M phase in docetaxel-resistant human MDA-MB-231-DTR cells assessed as upregulation of Chk2 phosphorylation at T68 at 2.5 to 10 uM incubated for 36 hrs by Western blot analysis. As to conditions: dose 2.5-10 µM. It is filed as functional, cell-based.
The nature of data set [12]: Induction of cell cycle arrest in docetaxel-resistant human MDA-MB-231-DTR cells assessed as accumulation at G0/G1 phase at 2.5 uM incubated for 36 hrs by PI staining based flow cytometry analysis (reference value: 74.77%). The format is functional.
Data set [13] is described as follows: Induction of apoptosis in docetaxel-resistant human MDA-MB-231-DTR cells assessed as increase in total cell death at 10 uM incubated for 48 hrs by Annexin V-FITC and PI staining based flow cytometry. It is filed as functional.
The target in data set [14] is T1, Signal transducer and activator of transcription 1-alpha/beta (Homo sapiens) (UniProt P42224).
T1 sequence (whole entry): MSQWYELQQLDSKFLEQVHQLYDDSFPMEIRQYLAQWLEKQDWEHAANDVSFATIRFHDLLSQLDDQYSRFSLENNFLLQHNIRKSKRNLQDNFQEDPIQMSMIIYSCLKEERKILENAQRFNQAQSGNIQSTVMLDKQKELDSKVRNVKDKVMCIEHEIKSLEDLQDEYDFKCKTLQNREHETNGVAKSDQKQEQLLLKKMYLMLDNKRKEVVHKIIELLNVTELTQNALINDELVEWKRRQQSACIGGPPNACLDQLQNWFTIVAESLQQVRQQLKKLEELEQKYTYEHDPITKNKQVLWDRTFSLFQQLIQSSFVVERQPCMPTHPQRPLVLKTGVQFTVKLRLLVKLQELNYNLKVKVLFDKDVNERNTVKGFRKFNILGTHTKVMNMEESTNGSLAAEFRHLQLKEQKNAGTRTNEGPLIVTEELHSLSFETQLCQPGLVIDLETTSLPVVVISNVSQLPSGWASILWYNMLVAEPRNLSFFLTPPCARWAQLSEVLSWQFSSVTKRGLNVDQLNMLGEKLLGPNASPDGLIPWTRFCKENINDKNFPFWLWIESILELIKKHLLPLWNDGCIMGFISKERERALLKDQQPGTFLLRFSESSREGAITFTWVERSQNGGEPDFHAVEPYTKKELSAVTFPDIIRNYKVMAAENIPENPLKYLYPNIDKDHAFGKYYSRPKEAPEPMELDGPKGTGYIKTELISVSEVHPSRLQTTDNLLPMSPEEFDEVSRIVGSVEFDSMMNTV
Description: Inhibition of STAT1 phosphorylation at S727 residue in docetaxel-resistant human MDA-MB-231-DTR cells assessed as decrease in phosphorylated STAT1 level at 2.5 to 10 uM incubated for 24 hrs by Western blot analysis. As to conditions: dose 2.5-10 µM. It is filed as cell-based.

Data set [15] in a line: Induction of cell cycle arrest in docetaxel-resistant human MDA-MB-231-DTR cells assessed as accumulation at G2/M phase at 5 uM incubated for 36 hrs by PI staining based flow cytometry analysis (reference value: 13.54%). The format is functional.
The nature of data set [16]: Induction of cell cycle arrest in docetaxel-resistant human MDA-MB-231-DTR cells assessed as accumulation at G2/M phase at 5 uM incubated for 36 hrs by PI staining based flow cytometry analysis (reference value: 13.16%). It is filed as functional.
In data set [17] the test system is MDA-MB-231. Description: Antitumor activity against docetaxel-resistant human MDA-MB-231-DTR cells xenografted in BALB/c mouse assessed as downregulation of Ki67 level in tumor tissue at 10 mg/kg, ip daily for 12 days by Immunohistochemical analysis. The format is functional, organism-based. As to conditions: time 12.0 day.
A short description of data set [18]: Induction of cell cycle arrest in docetaxel-resistant human MDA-MB-231-DTR cells assessed as accumulation at S phase at 5 uM incubated for 48 hrs by PI staining based flow cytometry analysis (reference value: 10.56%). It is filed as functional.
Data set [19] can be described thus: Antiproliferative activity against docetaxel-resistant human MDA-MB-231-DTR cells assessed as reduction in cell viability incubated for 72 hrs by MTT assay. The format is functional, cell-based. The note with it: MDA-MB-231, 72 h.
The subject of data set [20] is MDA-MB-231. The data set can be described thus: Induction of apoptosis in docetaxel-resistant human MDA-MB-231-DTR cells assessed as downregulation of survivin expression level at 2.5 to 10 uM incubated for 48 hrs by Western blot analysis. It is filed as functional, cell-based. The note with it: dose 2.5-10 µM.
The nature of data set [21]: Induction of cell cycle arrest in docetaxel-resistant human MDA-MB-231-DTR cells assessed as accumulation at G2/M phase at 5 uM incubated for 12 hrs by PI staining based flow cytometry analysis (reference value: 13.54%). It is filed as functional.
Data set [22] has as its system MDA-MB-231. Description: Inhibition of cell migration in docetaxel-resistant human MDA-MB-231-DTR cells assessed as downregulation of N-cadherin expression level at 3 to 6 uM incubated for 24 hrs by Western blot analysis. It is filed as functional, cell-based. As to conditions: dose 3-6 µM.
A short description of data set [23]: Induction of apoptosis in docetaxel-resistant human MDA-MB-231-DTR cells assessed as increase in total cell death at 2.5 uM incubated for 48 hrs by Annexin V-FITC and PI staining based flow cytometry. The format is functional.

Signal transducer and activator of transcription 3 (Homo sapiens), sequence (P40763 whole entry): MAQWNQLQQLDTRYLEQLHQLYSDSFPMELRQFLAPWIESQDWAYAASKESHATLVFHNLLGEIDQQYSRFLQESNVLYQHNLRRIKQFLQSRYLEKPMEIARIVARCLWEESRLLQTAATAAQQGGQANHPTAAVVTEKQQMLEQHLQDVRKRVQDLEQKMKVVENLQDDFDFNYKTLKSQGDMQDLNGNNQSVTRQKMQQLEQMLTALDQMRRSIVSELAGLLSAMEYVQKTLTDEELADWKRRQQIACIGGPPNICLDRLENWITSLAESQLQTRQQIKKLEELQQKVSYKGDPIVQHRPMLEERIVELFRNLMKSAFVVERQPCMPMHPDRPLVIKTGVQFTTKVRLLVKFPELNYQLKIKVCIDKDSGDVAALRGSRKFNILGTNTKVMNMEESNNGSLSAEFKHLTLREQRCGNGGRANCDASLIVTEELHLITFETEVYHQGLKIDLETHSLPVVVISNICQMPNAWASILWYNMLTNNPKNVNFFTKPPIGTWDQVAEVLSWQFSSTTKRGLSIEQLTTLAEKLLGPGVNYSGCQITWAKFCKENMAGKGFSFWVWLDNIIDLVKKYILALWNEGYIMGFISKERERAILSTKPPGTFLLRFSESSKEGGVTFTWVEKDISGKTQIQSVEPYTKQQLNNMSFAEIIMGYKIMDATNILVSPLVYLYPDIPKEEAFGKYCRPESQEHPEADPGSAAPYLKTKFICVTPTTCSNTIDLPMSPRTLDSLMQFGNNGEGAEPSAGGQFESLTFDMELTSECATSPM

One may read the IC50 as the midpoint of a concentration-inhibition curve. Regarding `O=C(NCCc1c[nH]c2ccccc12)c1cc2c([nH]c3ccccc32)c(C(=O)c2ccc(Br)cc2)n1`, the concentration for half-maximal inhibition (IC50) at 72 h in data set [1] came to 33.2 µM. The outcome with MDA-MB-231 [2], in the data set on MDA-MB-231 [11], in the data set with MDA-MB-231 [17] and with MDA-MB-231 [20] was Active. The CI was found to be 0.38 in data set [3] and 0.53 in [8]. Besides, in data set [4], the selectivity ratio stood at 10.7. The inhibition result (in [5]; in the data set with MDA-MB-231 [10]; in the data set on MDA-MB-231 [22]) was “Active” in each case. For the same compound, the Activity was determined as 21.18% in data set [6]; 1.75% in [7]; 62.36% in data set [12]; 61.85% in data set [13]; 26.59% in data set [15]; 24.58% in [16]. The Activity in data set [18] was found to be 12.49%; in [21] it was 17.91%; in data set [23], 5.55%. For the same compound, the figures for the half-inhibitory concentration (IC50) in data set [9] and in [19] were 2.96 µM and 3.24 µM, respectively. Further, the inhibition result in data set [14] was “inactive”.
